# Measurements as given in US5395947A, “Platinum(II) complex and processes for preparing the same” (Sunkyong Industries, Ltd., priority 1991, dated 1995).
# Tests used:
# [1] = tested on: murine leukemia L1210 cells; assay: Growth inhibition test on cultured murine leukemia L1210 cells; format: cell-based; details: 48 hours, 37° C., Trypan blue viability
# Protocol: 1. Growth inhibition test on cultured murine leukemia L1210 cells
# Murine leukemia L1210 cells(1×10^5) were treated with various concentrations of the compounds prepared in the above examples in RPMI 1640 medium supplemented with 10% fetal calf serum, and cultured in a 5% CO2 humidified incubator at 37° C. for 48 hours. Their viability, estimated by staining with 0.17% Trypan blue, was compared with that of control cells cultured in the identical medium without the compounds.
# murine leukemia L1210 = assay: Antitumor activity test on murine leukemia L1210 in vivo; set-up: species or system male BDF1 mice; details: days 1, 5, 9
# Protocol: 2. Antitumor activity test on murine leukemia L1210 in vivo
# Murine leukemia L1210 cells were maintained in the peritoneal cavities of 6-week-old male DBA/2 mice by weekly transfer in accordance with the procedure described in cancer chemotherapy Reports, Part 3, 3(2), 7 (1972). Specifically, 1×10^6 leukemia cells were inoculated into the abdominal cavities of 6-week-old male BDF1 mice weighing 21±3 g on day 0. Each treatment group consisted of seven mice. The test compounds were dissolved or suspended in 0.5% carboxymethyl cellulose(CMC)solution (in water) and were administered intraperitoneally on days 1, 5, and 9 relative to the tumor inoculation.
# Thirty mice of 6-week-old male BDF1 weighing 21±3 g were used as the control group, which were injected with 0.5% CMC solution only in the same manner as above.
# Anti-tumor activities of the compounds were evaluated in terms of the T/C % values calculated from the mean survival time(T) of the compound-treated group over that(C) of the control group. [formula]
SMILES,IC50 (concentration required for 50% inhibition of growth) [1],T/C (%) (murine leukemia L1210; 12.5 mg/kg i.p.),T/C (%) (murine leukemia L1210; 25 mg/kg i.p.),T/C (%) (murine leukemia L1210; 50 mg/kg i.p.),T/C (%) (murine leukemia L1210; 3.1 mg/kg i.p.),T/C (%) (murine leukemia L1210; 6.2 mg/kg i.p.),T/C (%) (murine leukemia L1210; 100 mg/kg i.p.)
"CC(C)C1O[C@H](C[NH-])[C@@H](C[NH-])O1.O=C([O-])CC(=O)[O-].[Pt+4] (relative stereo) [Example 38, cis-malonato[(4R,5R)-4,5-bis(aminomethyl)-2-isopropyl-1,3-dioxolane]platinum(II)]",0.43 µg/mL,123%,148%,220%,,,
"NC[C@H]1OCO[C@@H]1CN.O=C1C[O][Pt][O]1 [Example 1, (glycolato-O,O')[(4R,5R)-4,5-bis(aminomethyl)-1,3-dioxolane]platinum(II)]",0.36 µg/mL,137%,160%,toxic,95%,132%,
"CC1O[C@H](CN)[C@@H](CN)O1.O=C1C[O][Pt][O]1 [Example 5, (glycolato-O,O')[(4R,5R)-4,5-bis(aminomethyl)-2-methyl-1,3-dioxolane]platinum(II)]",0.35 µg/mL,154%,,toxic,104%,136%,
"CC1[O][Pt][O]C1=O.NCC1OCOC1CN [Example 13, (L-lactato-O,O')[(4R,5R)-4,5-bis(aminomethyl)-1,3-dioxolane]platinum(II)]",0.55 µg/mL,178%,207%,92%,,,
"CC1(C)OC(CN)C(CN)O1.CC1[O][Pt][O]C1=O [Example 14, (L-lactato-O,O')[(4R,5R)-4,5-bis(aminomethyl)-2,2-dimethyl-1,3-dioxolane]platinum(II)]",0.46 µg/mL,213%,toxic,toxic,,,
"CC1OC(CN)C(CN)O1.CC1[O][Pt][O]C1=O [Example 17, (L-lactato-O,O')[(4R,5R)-4,5-bis(aminomethyl)-2-methyl-1,3-dioxolane]platinum(II)]",0.44 µg/mL,201%,327%,139%,,,
"O=C1CC(=O)[O][Pt-2]2([NH2+]CC3OCOC3C[NH2+]2)[O]1 [Example 33, cis-malonato[(4R,5R)-4,5-bis(aminomethyl)-1,3-dioxolane]platinum(II)]",0.50 µg/mL,146%,133%,276%,,,
"CC1OC2C[NH2+][Pt-2]3([NH2+]CC2O1)[O]C(=O)CC(=O)[O]3 [Example 34, cis-malonato[(4R,5R)-4,5-bis(aminomethyl)-2-methyl-1,3-dioxolane]platinum(II)]",0.60 µg/mL,140%,156%,241%,,,
"CCC1OC2C[NH2+][Pt-2]3([NH2+]CC2O1)[O]C(=O)CC(=O)[O]3 [Example 35, cis-malonato[(4R,5R)-4,5-bis(aminomethyl)-2-ethyl-1,3-dioxolane]platinum(II)]",0.44 µg/mL,144%,204%,245%,,,
"CC1(C)OC2C[NH2+][Pt-2]3([NH2+]CC2O1)[O]C(=O)CC(=O)[O]3 [Example 36, cis-malonato[(4R,5R)-4,5-bis(aminomethyl)-2,2-dimethyl-1,3-dioxolane]platinum(II)]",0.76 µg/mL,133%,179%,190%,,,
"O=C1CC(=O)[O][Pt-2]2([NH2+]CC3OC4(CCCC4)OC3C[NH2+]2)[O]1 [Example 39, cis-malonato[(4R,5R)-4,5-bis(aminomethyl)-1,3-dioxolane-2-spiro-1'-cyclopentane]platinum(II)]",0.31 µg/mL,217%,169%,203%,,,
"CCC1OC2C[NH2+][Pt-2]3([NH2+]CC2O1)[O]C(=O)C(C)(C)C(=O)[O]3 [Example 40, cis-dimethylmalonato[(4R,5R)-4,5-bis(aminomethyl)-2-ethyl-1,3-dioxolane]platinum(II)]",0.52 µg/mL,,213%,165%,,,248%
"CC(C)C1OC2C[NH2+][Pt-2]3([NH2+]CC2O1)[O]C(=O)C(C)(C)C(=O)[O]3 [Example 41, cis-dimethylmalonato[(4R,5R)-4,5-bis(aminomethyl)-2-isopropyl-1,3-dioxolane]platinum(II)]",0.44 µg/mL,,123%,174%,,,204%
"CC1(C)C(=O)[O][Pt-2]2([NH2+]CC3OC4(CCCC4)OC3C[NH2+]2)[O]C1=O [Example 42, cis-dimethylmalonato[(4R,5R)-4,5-bis(aminomethyl)-1,3-dioxolane-2-spiro-1'-cyclopentane]platinum(II)]",0.54 µg/mL,,172%,160%,,,150%
